SMILES strings stand for the structures. The source made the active and inactive calls. No cut-off for these calls is given here.

Assay type in all cases: functional, cell-based
Assay [1] deals with KG-1. The experiment in a line: Cytotoxicity against human KG-1 cells assessed as reduction in cell viability incubated for 48 hrs by CCK-8 assay. The note with it: KG-1, 48 h. A general note: Tetrazolium assays rely on reduction of a dye to a coloured formazan, in cell work by metabolically active cells.
The subject of assay [2] is HL-60. The experiment in a line: Cytotoxicity against human HL-60 cells assessed as reduction in cell viability incubated for 48 hrs by CCK-8 assay. The note with it: HL-60, 48 h.
In assay [3] the test system is KG-1. The experiment in a line: Induction of apoptosis in human KG-1 cells assessed as caspase 3 activation incubated for 48 hrs by Western blot analysis. Conditions: dose 10-30 µM. In general terms: Immunoblotting shows a protein as a band on a membrane.
Assay [4] concerns HL-60. The assay is described as follows: Induction of apoptosis in human HL-60 cells assessed as increase in Bax expression at 10 to 30 uM incubated for 48 hrs by Western blot analysis. Conditions: dose 10-30 µM.
Assay [5] concerns KG-1. The experiment in a line: Induction of apoptosis in human KG-1 cells assessed as caspase 9 activation incubated for 48 hrs by Western blot analysis. The note with it: dose 10-30 µM.
Assay [6] concerns HL-60. The experiment in a line: Induction of apoptosis in human HL-60 cells assessed as caspase 3 activation incubated for 48 hrs by Western blot analysis. The note with it: dose 10-30 µM.
Assay [7] has as its system HL-60. The experiment in a line: Induction of apoptosis in human HL-60 cells assessed as caspase 9 activation incubated for 48 hrs by Western blot analysis. The note with it: dose 10-30 µM.
The subject of assay [8] is KG-1. The assay is described as follows: Induction of apoptosis in human KG-1 cells assessed as increase in PARP cleavage incubated for 48 hrs by Western blot analysis. Conditions: dose 10-30 µM.
Assay [9] concerns HL-60. The experiment in a line: Induction of apoptosis in human HL-60 cells assessed as increase in PARP cleavage incubated for 48 hrs by Western blot analysis. The note with it: dose 10-30 µM.
Assay [10] relates to HL-60. The experiment in a line: Induction of apoptosis in human HL-60 cells assessed as decrease in Bcl2 expression incubated for 48 hrs by Western blot analysis. The note with it: dose 10-30 µM.
The test system of assay [11] is HL-60. The assay is described as follows: Induction of apoptosis in human HL-60 cells assessed as increase in Cyt-c expression at 10 to 30 uM incubated for 48 hrs by Western blot analysis. Conditions: dose 10-30 µM.

By IC50 is commonly meant the concentration that gives 50% inhibition. Regarding `CCOC(C)=O` [ETHYL ACETATE], the IC50 is over 300 µg/mL in assay [1] and 216 µg/mL in [2].
Taken in the same sequence, the figures for `ClCCl` [METHYLENE CHLORIDE] were 149 µg/mL and 116 µg/mL.
For `COC(=O)/C=C1\CC[C@H]2[C@@H](C(=O)[C@H](O)[C@@H]3[C@]2(C)CC[C@H](O)[C@]3(C)C(=O)OC)[C@H]1C`, in that order: over 50 µM and 25.7 µM.
Take `COC(=O)[C@]1(C)[C@@H]2C(=O)[C@H](OC(C)=O)[C@H]3[C@@H](C)/C(=C/C(=O)O)CC[C@@H]3[C@@]2(C)CC[C@@H]1O`: the Activity result in assay [3], in [5], in assay [6], in [7], in [8] and in [9] was “Dose-dependent effect” in each case. Besides, the Activity result in assay [10] was “Dose-dependent effect”. For the same molecule, the result in assay [4] and in assay [11] was Active. Moreover, the concentration for half-maximal inhibition (IC50) in assay [1] came to 18.6 µM; in assay [2], 15.2 µM.
As for `COC(=O)CC1=CC[C@H]2[C@@H](C(=O)[C@H](O)[C@@H]3[C@]2(C)CCC[C@]3(C)C(=O)OC)[C@H]1C`, the IC50 in [1] was 42.2 µM; in [2], 28.5 µM.
For the molecule `CCCCCC` [HEXANE], the IC50 in assay [2] was over 300 µg/mL.
Turning to `COC(=O)[C@]1(C)[C@@H]2[C@@H](O)C(=O)[C@H]3[C@@H](C)/C(=C/C(=O)O)CC[C@@H]3[C@@]2(C)CC[C@@H]1O`, the IC50 in [1] was over 50 µM; in assay [2], 28.7 µM.
For `COC(=O)[C@]1(C)[C@@H]2C(=O)[C@H](O)[C@H]3[C@@H](C)/C(=C/C(=O)O)CC[C@@H]3[C@@]2(C)CC[C@@H]1O`, in that order: 35.7 µM and 24.3 µM.
For `CC[C@@]1(O)C(=O)OCc2c1cc1n(c2=O)Cc2cc3ccccc3nc2-1` [CAMPTOTHECIN], in that order: 1.6 µM and 1.7 µM.

(Values after ChEMBL document CHEMBL4673274, “Cytotoxic components from the leaves of Erythrophleum fordii induce human acute leukemia cell apoptosis through caspase 3 activation and PARP cleavage” (Bioorg Med Chem Lett, 2021).)
